From US20180263943A1, “COMPOUND FOR TREATMENT OF MYOTONIC DYSTROPHY TYPE 1” (UNIVERSITAT DE VALÈNCIA, ESTUDI GENERAL, priority 2014, published 2018)
Entries after “also recorded” stand apart in the source; their conditions may differ.

What was measured:
[1] = tested on: DM1 model flies (Mhc-Gal4 UASi(CTG)480>yw); assay: Drosophila lifespan analyses with oral drug administration; assay type: in vivo; conditions: for increase in mean life compared to that for untreated flies: oral, 29° C.; for median survival compared to untreated flies / survival / mean life expectancy of myotonic dystrophy type 1 model flies (summary): oral administration; for survival / mean life expectancy of myotonic dystrophy type 1 model flies (summary): tested at 10 and 100 μM
Method: Between 50-80 newly emerged flies were collected in freshly prepared tubes containing standard nutritive medium containing apoptosis or autophagic inhibitor drugs or solvent only (water or DMSO). Males and females were kept in different tubes at 29° C. Every day, the number of dead flies was scored. Flies were transferred to new tubes twice a week. NAC, chloroquine and NSCl (Sigma-Aldrich) were tested at 10 and 100 μM and dissolved in water or DMSO following the manufacturer's indications. Survival curves were obtained using the Kaplan-Meier method. Statistical curve comparisons were carried out according to the Gehan-Breslow-Wilcoxon test (α=0.05).
The effect of a chemical inhibition of apoptosis or autophagy in model flies (Mhc-Gal4 UASi(CTG)480>yw) was studied. Consequently, two different drugs previously described as autophagic inhibitors were tested. N-acetyl cysteine (NAC) blocks reactive oxygen species (ROS) and protects cells by inhibiting autophagy through activation of the PI3K/Akt/mTOR pathway (20), and chloroquine triggers autophagy inhibition raising lysosomal pH and, consequently, the fusion of autophagosome with lysosome, thus preventing lysosomal protein degradation [reviewed in (21)]. Both drugs were assayed at two different concentrations, 10 and 100 μM (FIGS. 5 A, B).
Additionally, the effects of apoptosis inhibition were assayed. NSCl, a caspase 3 inhibitor, was orally administered.

[2] = tested on: DM1 model flies [Mhc-Gal4 UAS-i(CTG)480>yw]; assay: Histological analysis of indirect flight muscle area in DM1 model flies; assay type: in vivo, Drosophila; conditions: oral administration
Method: Analysis of the indirect flight muscle area in Drosophila thoraces was performed as previously described (13). Briefly, six Drosophila thoraces of three-day-old females were embedded in Epon following standard procedures. After the drying of the resin, semi-thin sections of 1.5 μm were obtained using Ultracut E ultramicrotome system (Reichert & Jung and Leica). Images were taken at 100× magnification with a Leica DM2500 microscope. To quantify muscle area, five images per fly containing IFMs (indirect flight muscles) were converted into binary images. Considering the complete image as 100% of the area, the percentage occupied by pixels corresponding to IFMs was calculated using NIH ImageJ software. P-values were obtained using a two-tailed, non-paired t-test (α=0.05), applying Welch's correction when necessary.
For that purpose, DM1 model flies were fed with food containing 10 and 100 μM NAC for 7 days.
Histological analysis of muscles was performed in adult model flies [Mhc-Gal4 UAS-i(CTG)480>yw] and control flies (Mhc-Gal4>yw) which were fed for 7 days at 25° C. with standard media containing 10 and 100 μM NAC. After that period, six female thoraces were subjected to non-fluorescent histological analysis, as described above (FIG. 7).

[3] = tested on: DM1 fibroblasts; assay: LysoTracker staining of autolysosomes in DM1 fibroblasts; assay type: cell-based, human; conditions: 0.01, 1, 10 and 100 μM, 48 h
Method: A cell model of DM1 (provided by D. Furling's laboratory, Institute of Myologie, Paris) consisted of normal and DM1 (1300 CTG repeats) immortalized (hTERT) skin fibroblasts expressing conditional MyoD. Fibroblast cells were grown in Dulbecco's Modified Eagle Medium (DMEM) with 4.5 g/L of glucose, 1% of penicillin and streptomycin (P/S) and 10% foetal bovine serum (FBS) (Sigma). For compound testing, fibroblasts were aliquoted in 24-well plate at 3.5×10^4 cells per well. Each well contained a cover slip.
To this end, a cell model of DM1 was cultured as described above and NAC (Sigma-Aldrich) was added to afford final concentrations of 0.01, 1, 10 and 100 μM before incubating the cultures for 48 hours. To transdifferentiate fibroblasts into myoblasts by inducing expression of MyoD, cells were plated in muscle differentiation medium (MDM) containing DMEM 4.5 g/L glucose with 1% P/S, 2% horse serum, 1% apo-transferrin (10 mg/mL), 0.1% insulin (10 mg/mL) and 0.02% doxycyclin (10 mg/mL). After treatment with NAC, each well was washed twice with PBS and incubated with 100 nM LysoTracker RED-DND99 and 5 μg/mL Hoechst 33258 (Invitrogen and Sigma-Aldrich, respectively) at 37° C. for 30 min and mounted using fluorescence mounting medium (Dako, Glostrup, Denmark). Images from cell culture were obtained using a fluorescence microscope Leica DM4000 B LED at 400× magnification (FIG. 6).

[4] = tested on: Myosin heavy chain (Mhc)-Gal4 UAS-i(CTG)480 flies; assay: Flight assay (landing height); assay type: in vivo, Drosophila; conditions: five days
Method: Flight assays were performed five days after according to (Babcock et al. 2014 PMID: 24561810) using 100 male flies per group. Landing distance was compared between groups taking the compound and controls using t-student test (FIG. 8). The significance threshold was set to p<0.05.

[5] = tested on: MBNL1; assay: MBNL1 nuclear protein levels in DM1 myoblasts (immunofluorescence); assay type: cell-based, human; conditions: 0.1, 1, 10 and 100 μM, 24 h
Method: In order to determine whether NAC modifies MBNL1 protein levels and/or the number of ribonuclear foci, DM1 fibroblasts were transdifferentiated to myoblasts by induction of MyoD expression for 24 h. To this end, fibroblasts were aliquoted in 96-well plate (8×10^3 cells per well) and transdifferentiated to myoblast in DMD media over 24 hours before the addition of NAC was added at concentrations of 0.1, 1, 10 and 100 μM using DMSO and water as vehicle and remained in the media with the compound another 24 hours. Subsequently cells were fixed in 4% paraformaldehyde (PFA) for 10 min at room temperature followed by several washes in PBS 1×. Cells were then permeabilized with 0.3% Triton in PBS (PBT), blocked (PBT 1% donkey serum and 0.5% BSA) for 30 min at room temperature, and incubated with primary antibody (mouse anti-MBNL1 1:200; Sigma) at 4° C. overnight in order to detect MBNL1 with a monoclonal antibody. After several washes with PBT, cells were incubated for 45 min with biotin-conjugated secondary antibody (Sigma) at a 1:200 dilution. Cells were then incubated with ABC solution (ABC kit, VECTASTAIN) for 30 min at room temperature, followed by PBT washes and incubation with streptavidin-FITC (1:200) for 45 min. […] Images were taken using IN Cell Analyzer 2200 Imaging System and MBNL intensity in nuclei was counted using software designed for this system.

[6] = tested on: ribonuclear foci; assay: Ribonuclear foci detection in DM1 cells (in situ hybridization); assay type: cell-based, human; conditions: 0.1, 1, 10 and 100 μM, 24 h
Method: In addition, for ribonuclear foci detection, fibroblasts were aliquoted in 96-well plate (1.0×10^4 cells per well). Compound was added 24 hours after plating the cells. After 24 hours incubation with NAC at concentrations of 0.1, 1, 10 and 100 μM using DMSO and water as vehicle, cells were fixed in 4% paraformaldehyde (PFA) for 10 min at room temperature followed by several washes in PBS 1×. Fixed cells were incubated in pre-hybridization buffer (SSC 2×, 30% deionized formamide) for 30 min at room temperature, hybridized with Cy3-(CAG)7-Cy3 labelled probe diluted 1:500 in hybridization buffer (40% formamide, 2×SSC, 0.2% BSA, 10% dextran sulfate, 2 mM vanadyl complex, 10% tRNA (10 mg/mL), 10% herring sperm) for 2 hours at 37° C., washed twice in SSC2× buffer for 15 min at 45° C., washed in PBS 1× for 15 min at room temperature, incubated with Hoechst 33342 (5 mg/mL) diluted 1:2000 in PBS 1× for 20 min at room temperature and mounted with 20% MOWIOL. Images were taken using IN Cell Analyzer 2200 Imaging System and foci number was counted using software designed for this system.

Structure (SMILES) | increase in mean life compared to that for untreated flies ([1]; 10 μM in food) | median survival compared to untreated flies ([1]; 10 μM) | increase in mean life compared to that for untreated flies ([1]; 100 μM in food) | median survival compared to untreated flies ([1]; 100 μM) | survival / mean life expectancy of myotonic dystrophy type 1 model flies (summary) [1] | muscle area of IFM versus water control ([2]; 10 μM) | muscle area of IFM versus water control ([2]; 100 μM) | autolysosomes (LysoTracker staining) compared to untreated DM1 fibroblasts [3] | landing height ([4]; 10 μM in food) | landing height ([4]; 100 μM in food) | MBNL1 intensity in the nucleus / MBNL1 protein levels [5] | number of ribonuclear foci [6] | improvement of mean life ([1]; 10 μM (lower concentration), orally administered)
CC(=O)N[C@@H](CS)C(=O)O [NAC, N-acetyl cysteine] | at least twice | increased median survival | at least twice | increased median survival | more than doubled | increase in muscle area | increase in muscle area | dramatic decrease of autolysosomes; also recorded: dramatically reduce autolysosomes | significantly higher landing height | significantly higher landing height | remains unchanged | does not modify; also recorded: neither modifies | 
COc1ccc(CN2C(=O)C(=O)c3cc(S(=O)(=O)N4CCC[C@H]4COc4cccnc4)ccc32)cc1 [NSCl, 1-(4-methoxybenzyl)-5-({(2S)-2-[(3-pyridinyloxy)methyl]-1-pyrrolidinyl}sulfonyl)-1H-indole-2,3-dione] |  | improvement in median survival |  | No effect | improved |  |  |  |  |  |  |  | 4 days
CCN(CC)CCCC(C)Nc1ccnc2cc(Cl)ccc12 (stereo not shown) [chloroquine] | at least twice | increased median survival | at least twice | increased median survival | more than doubled | increase in muscle area |  |  |  |  |  |  | 
